Earlier results as cited in patent publication US5198423A, “Functional polypeptide containing a cell binding domain and a heparin binding domain of fibronectin” (Takara Shuzo Co., Ltd., priority 1989, dated 1993).

System: angiogenesis
Conditions: chick embryo chorions, rabbit corneas, and hamster cheek pouches

SMILES | inhibition of angiogenesis, in words
C[C@H]1C[C@@H]2[C@H]([C@@H](O)C[C@@]3(C)[C@H]2CC[C@]3(O)C(=O)CO)[C@@]2(C)C=CC(=O)C=C12 [6α-methylprednisolone] | found to inhibit angiogenesis
C[C@@H]1C[C@H]2[C@@H]3CCC4=CC(=O)C=C[C@]4(C)[C@@]3(F)[C@@H](O)C[C@]2(C)[C@@]1(O)C(=O)CO [dexamethasone] | found to inhibit angiogenesis
C[C@]12C=CC(=O)C=C1CC[C@@H]1[C@@H]2[C@@H](O)C[C@@]2(C)[C@H]1CC[C@]2(O)C(=O)CO [prednisolone] | found to inhibit angiogenesis
